{"source": "ChEMBL document CHEMBL3813610", "about": "“Proteasome inhibition by new dual warhead containing peptido vinyl sulfonyl fluorides” (Bioorg Med Chem, 2016)", "assay": "Inhibition of 20S proteasome (unknown origin) using Suc-LLVY-AMC as substrate preincubated for 1 hr followed by substrate addition incubated for 1 hr by fluorescence analysis", "parameters": "species or system Homo sapiens", "note": "pIC50: −log10 of the molar value.", "data": [{"smiles": "CC(C)C[C@@H](CS(=O)(=O)F)NC(=O)[C@H](CC(C)C)NC(=O)[C@H](CC(C)C)NC(=O)OCc1ccccc1", "values": [{"measurement": "pIC50", "value": 7.05}]}, {"smiles": "CC(C)C[C@@H](CS(=O)(=O)F)NC(=O)[C@H](CC(C)C)NC(=O)[C@H](CC(C)C)NC(=O)[C@H](CC(C)C)NC(=O)OCc1ccccc1", "values": [{"measurement": "pIC50", "value": 7.75}]}, {"smiles": "CC(C)C[C@@H](/C=C/S(=O)(=O)F)NC(=O)[C@H](CC(C)C)NC(=O)[C@H](CC(C)C)NC(=O)[C@H](CC(C)C)NC(=O)OCc1ccccc1", "values": [{"measurement": "pIC50", "value": 7.00}]}, {"smiles": "CC(C)C[C@@H](/C=C/S(=O)(=O)F)NC(=O)[C@H](CC(C)C)NC(=O)[C@H](CC(C)C)NC(=O)OCc1ccccc1", "values": [{"measurement": "pIC50", "value": 6.66}]}]}
